Experiments:
human orexin 1 receptor = molecular target: T1, human orexin 1 receptor (Homo sapiens, UniProt O43613); test: Calcium accumulation in cells (FLIPR), antagonism of orexin A, human orexin 1 receptor; format: cell-based; conditions: for Ki: calcium accumulation, antagonism of orexin A, Cheng-Prusoff corrected, read-out: FLIPR hOx1R Ki; for inhibition at 10 µM: measured at a concentration of 10 μM of compound, read-out: FLIPR hOx1R % inhibition
T1 construct: expressed in transfected cells
T1 sequence (O43613 1-425): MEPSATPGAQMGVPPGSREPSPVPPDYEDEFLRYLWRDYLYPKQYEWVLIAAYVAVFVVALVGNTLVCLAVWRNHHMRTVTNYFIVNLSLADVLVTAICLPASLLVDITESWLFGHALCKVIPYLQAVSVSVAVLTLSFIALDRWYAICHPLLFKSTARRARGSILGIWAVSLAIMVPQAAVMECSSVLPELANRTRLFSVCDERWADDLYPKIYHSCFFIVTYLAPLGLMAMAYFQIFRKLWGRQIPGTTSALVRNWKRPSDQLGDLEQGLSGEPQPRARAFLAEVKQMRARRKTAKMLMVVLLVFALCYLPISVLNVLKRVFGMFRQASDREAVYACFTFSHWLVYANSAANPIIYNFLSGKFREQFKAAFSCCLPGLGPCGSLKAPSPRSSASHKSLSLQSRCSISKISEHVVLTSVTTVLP

human orexin 2 receptor = molecular target: T2, human orexin 2 receptor (Homo sapiens, UniProt O43614); test: Calcium accumulation in cells (FLIPR), antagonism of orexin A, human orexin 2 receptor; format: cell-based; conditions: calcium accumulation, antagonism of orexin A, Cheng-Prusoff corrected; read-out: FLIPR hOx2R Ki
T2 construct: expressed in transfected cells
T2 sequence (O43614 1-444): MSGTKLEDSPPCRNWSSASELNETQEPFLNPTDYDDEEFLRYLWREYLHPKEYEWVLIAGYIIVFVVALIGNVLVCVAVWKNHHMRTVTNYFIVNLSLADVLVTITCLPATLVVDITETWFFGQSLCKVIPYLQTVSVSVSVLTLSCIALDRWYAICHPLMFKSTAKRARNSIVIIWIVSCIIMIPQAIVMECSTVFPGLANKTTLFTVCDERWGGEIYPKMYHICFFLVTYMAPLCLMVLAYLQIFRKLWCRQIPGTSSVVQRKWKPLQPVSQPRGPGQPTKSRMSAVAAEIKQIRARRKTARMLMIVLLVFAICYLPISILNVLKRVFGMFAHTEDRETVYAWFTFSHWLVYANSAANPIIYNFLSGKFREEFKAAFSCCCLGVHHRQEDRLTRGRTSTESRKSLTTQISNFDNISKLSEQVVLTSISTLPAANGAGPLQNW

Compound	Ki (human orexin 1 receptor) [nM]	Ki (human orexin 2 receptor) [nM]	inhibition at 10 µM (human orexin 1 receptor) [%]
O=C1N(Cc2c[nH]c3ccccc23)CCC12CCN(c1nc3ccccc3o1)CC2 [Example 3.13, 8-Benzooxazol-2-yl-2-(1H-indol-3-ylmethyl)-2,8-diaza-spiro[4.5]decan-1-one]	342	342	–
COc1ccnc(N2CCC3(CCN(Cc4c[nH]c5ccccc45)C3=O)CC2)n1 [Example 3.14, 2-(1H-Indol-3-ylmethyl)-8-(4-methoxy-pyrimidin-2-yl)-2,8-diaza-spiro[4.5]decan-1-one]	2770	134	–
COc1ccnc(N2CCC3(CCN(Cc4c[nH]c5ncccc45)C3=O)CC2)n1 [Example 3.15, 8-(4-Methoxy-pyrimidin-2-yl)-2-(1H-pyrrolo[2,3-b]pyridin-3-ylmethyl)-2,8-diaza-spiro[4.5]decan-1-one]	–	637	26
COc1ccnc(N2CCC3(CCN(Cc4n[nH]c5ccccc45)C3=O)CC2)n1 [Example 3.16, 2-(1H-Indazol-3-ylmethyl)-8-(4-methoxy-pyrimidin-2-yl)-2,8-diaza-spiro[4.5]decan-1-one]	–	673	39
COc1ccnc(N2CCC3(CCN(Cc4ccccc4-c4nc(C)no4)C3=O)CC2)n1 [Example 3.17, 8-(4-Methoxy-pyrimidin-2-yl)-2-[2-(3-methyl-[1,2,4]oxadiazol-5-yl)-benzyl]-2,8-diaza-spiro[4.5]decan-1-one]	–	298	37
Cc1cc(C)nc(N2CCC3(CCN(Cc4ccccc4-c4nc(C)no4)C3=O)CC2)n1 [Example 3.19, 8-(4,6-Dimethyl-pyrimidin-2-yl)-2-[2-(3-methyl-[1,2,4]oxadiazol-5-yl)-benzyl]-2,8-diaza-spiro[4.5]decan-1-one]	–	127	22
COc1cc(C)nc(N2CCC3(CCN(Cc4c[nH]c5ncccc45)C3=O)CC2)n1 [Example 3.22, 2-((1H-pyrrolo[2,3-b]pyridin-3-yl)methyl)-8-(4-methoxy-6-methylpyrimidin-2-yl)-2,8-diazaspiro[4.5]decan-1-one]	–	246	24
Cc1cc(C)nc(N2CCC3(CCN(Cc4ccc5[nH]ccc5c4)C3=O)CC2)n1 [Example 3.23, 2-((1H-indol-5-yl)methyl)-8-(4,6-dimethylpyrimidin-2-yl)-2,8-diazaspiro[4.5]decan-1-one]	–	2390	10
Cc1cc(C)nc(N2CCC3(CCN(Cc4nn(C)nc4-c4ccccc4)C3=O)CC2)n1 [Example 3.24, 8-(4,6-dimethylpyrimidin-2-yl)-2-((2-methyl-5-phenyl-2H-1,2,3-triazol-4-yl)methyl)-2,8-diazaspiro[4.5]decan-1-one]	–	117	25
Cc1cc(C)nc(N2CCC3(CC2)NCN(Cc2c[nH]c4ccccc24)C3=O)n1 [Example 4.1, 3-((1H-indol-3-yl)methyl)-8-(4,6-dimethylpyrimidin-2-yl)-1,3,8-triazaspiro[4.5]decan-4-one]	–	2120	12
COc1ccnc(N2CCC3(CCN(Cc4c[nH]c5ccccc45)C3=O)C2)n1 (stereo not shown) [Example 5.1, 2-((1H-indol-3-yl)methyl)-7-(4-methoxypyrimidin-2-yl)-2,7-diazaspiro[4.4]nonan-1-one]	2140	132	–
COc1ccnc(N2CC[C@@]3(CCN(Cc4c[nH]c5ccccc45)C3=O)C2)n1 [Example 5.2, (R)-2-((1H-indol-3-yl)methyl)-7-(4-methoxypyrimidin-2-yl)-2,7-diazaspiro[4.4]nonan-1-one]	–	1260	49
COc1ccnc(N2CC[C@]3(CCN(Cc4c[nH]c5ccccc45)C3=O)C2)n1 [Example 5.3, (S)-2-((1H-indol-3-yl)methyl)-7-(4-methoxypyrimidin-2-yl)-2,7-diazaspiro[4.4]nonan-1-one]	2640	103	–
COc1cc(C)nc(N2CCC3(CCN(Cc4c[nH]c5ccccc45)C3=O)C2)n1 (stereo not shown) [Example 5.4, 2-((1H-indol-3-yl)methyl)-7-(4-methoxy-6-methylpyrimidin-2-yl)-2,7-diazaspiro[4.4]nonan-1-one]	1050	119	–

Reference: patent US20120165331A1, “Di/tri-aza-spiro-C9-C11alkanes” (priority 2010, published 2012)
